Experimental findings from article PMC8329730 (Journal of medicinal chemistry, 2019) are described below.

Series [1] is described as follows: human liver microsome intrinsic clearance. To be noted: human liver microsomes.
The nature of series [2]: LogD. Format: physicochemical. As to conditions: pH 7.4.
The nature of series [3]: mouse PK, blood and brain, 10 mg/kg IP. Format: in vivo. As to conditions: female, NMRI, whole blood.
Series [4] is described as follows: toxicity observed on dosing mice. Format: in vivo, mouse. To be noted: 50 mg/kg QD.

Where a name gives a salt, the structure may show the parent alone.

Regarding “1-((6aR,9aR)-4-(2-Aminopyrimidin-4-yl)-6a,7,8,9,9a,10-hexahydro-2H-cyclopenta[2,3][1,4]oxazepino[5,6,7-cd]indazol-2-yl)ethan-1-one [compound 49]”, the “HLM Clint” value in series [1] is listed as “highly cleared”.
In series [2], `c1ccc2c(c1)Nc1n[nH]c3cccc(c13)O2` [9a] showed a log distribution coefficient (logD) of 4.1.
For `CCOc1cc(-c2ccnc(N)n2)cc2[nH]nc(N)c12` [57a, 6-(2-Aminopyrimidin-4-yl)-4-ethoxy-1H-indazol-3-amine formate], the time of peak concentration (Tmax) in series [3] was in the range of 15 to 30 min.
Take `Cn1nc2c3c(cc(-c4ccnc(N)n4)cc31)Oc1ccccc1N2` [compound 18, 4-(2-Methyl-2,11-dihydrobenzo[2,3][1,4]oxazepino[5,6,7-cd]indazol-4-yl)pyrimidin-2-amine]: the time of peak concentration (Tmax) in series [3] lay in the range of 15 to 30 min. Also, in series [4], the “animals dying within 30 minutes of treatment” value came to 50%. Also, the “animals experiencing inflammation after dosing” value in series [4] (resolved with time) worked out at 50%.
